Values quoted from earlier work as cited in patent US20260284237A1, “RADIOLABELED FAPI COMPLEX, AND PREPARATION METHOD THEREFOR AND USE THEREOF” (BEIJING NORMAL UNIVERSITY, priority 2023, published 2026).

Experiments:
[1] = background statement
FAP = details: background statement

N#C[C@@H]1CC(F)(F)CN1C(=O)CNC(=O)c1ccnc2ccc(OCCCN3CCN(C(=O)CN4CCN(CC(=O)O)CCN(CC(=O)O)CCN(CC(=O)O)CC4)CC3)cc12 [FAPI-04]
tumor uptake as radiotherapeutic drug [1]: relatively low tumor uptake
affinity and specificity toward the FAP (FAP): favorable affinity and specificity toward the FAP
